Measured values taken from ChEMBL document CHEMBL4359815, “Design, synthesis, antitumor activities and biological studies of novel diaryl substituted fused heterocycles as dual ligands targeting tubulin and katanin” (Eur J Med Chem, 2019).
pIC50, pKd: −log10 of the molar value. Calls of active or inactive are those of the source. The rule behind the calls is not given here.

Tests used:
HUVEC [1] = assay: Cytotoxicity against HUVEC after 48 hrs by MTT assay; type: cell-based; details: Homo sapiens
A549 [2] = assay: Induction of apoptosis in human A549 cells assessed as viable cells at 0.5 uM after 48 hrs by Annexin-V/propidium iodide staining based flow cytometric method (reference value: 92.05%); type: functional; details: A549, 48 h, read-out: Activity
HUVEC [3] = assay: Antiangiogenic activity in HUVEC assessed as inhibition of capillary like tube formation in matrigel at 0.4 uM after 24 hrs by matrigel-based inverted microscopic analysis relative to control; type: functional; details: Homo sapiens
HUVEC [4] = assay: Antiangiogenic activity in HUVEC assessed as inhibition of capillary like tube formation in matrigel at 0.2 uM after 24 hrs by matrigel-based inverted microscopic analysis; type: functional, cell-based; details: Homo sapiens
A549 [5] = assay: Inhibition of colony formation in human A549 cells after 48 hrs by crystal violet staining based assay; type: functional, cell-based
A2780 [6] = assay: Antiproliferative activity against human A2780 cells assessed as reduction in cell viability after 48 hrs by MTT assay; type: functional, cell-based; details: A2780, 48 h
HeLa = assay: Antiproliferative activity against human HeLa cells assessed as reduction in cell viability after 48 hrs by MTT assay; type: functional, cell-based
HCT-116 = assay: Antiproliferative activity against human HCT116 cells assessed as reduction in cell viability after 48 hrs by MTT assay; type: functional, cell-based; details: HCT-116, 48 h
A549 [7] = assay: Antiproliferative activity against human A549 cells assessed as reduction in cell viability after 48 hrs by MTT assay; type: functional, cell-based; details: A549, 48 h
Tubulin (Homo sapiens) = Tubulin (Homo sapiens) (UniProt P68371+Q9H4B7+P0DPH7+P68366+Q13509+Q71U36+P04350+Q3ZCM7+P07437+P68363+Q9BQE3+Q6PEY2+Q13885+Q9BVA1+Q9BUF5); assay: Induction of tubulin depolymerization in human HeLa cells after 24 hrs by DAPI staining based fluorescence microscopic analysis; type: cell-based
[8] = Binding affinity to human katanin by MST assay
[9] = target: Katanin p60 ATPase-containing subunit A1 (Homo sapiens) (UniProt O75449); assay: Inhibition of Katanin p60 degradation in human A549 cells preincubated for 15 mins followed by compound addition in presence of cycloheximide by immunoblotting analysis; type: cell-based
Katanin p60 ATPase-containing subunit A1 (Homo sapiens), sequence (O75449 whole entry): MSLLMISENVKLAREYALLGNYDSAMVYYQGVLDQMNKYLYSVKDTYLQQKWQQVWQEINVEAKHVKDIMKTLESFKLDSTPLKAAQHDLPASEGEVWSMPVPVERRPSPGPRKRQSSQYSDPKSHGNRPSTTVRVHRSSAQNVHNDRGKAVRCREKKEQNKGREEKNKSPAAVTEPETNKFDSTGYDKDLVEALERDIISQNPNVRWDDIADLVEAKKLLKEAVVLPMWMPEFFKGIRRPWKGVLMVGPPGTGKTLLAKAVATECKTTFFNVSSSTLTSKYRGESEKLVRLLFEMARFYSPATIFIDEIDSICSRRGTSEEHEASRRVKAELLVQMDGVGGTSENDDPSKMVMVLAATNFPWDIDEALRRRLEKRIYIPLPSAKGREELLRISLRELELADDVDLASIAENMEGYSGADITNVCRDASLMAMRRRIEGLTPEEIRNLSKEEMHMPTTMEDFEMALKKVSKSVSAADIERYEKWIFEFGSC

A549 [10] = assay: Antiproliferative activity against human A549 cells harboring control siRNA after 48 hrs by MTT assay; type: functional, cell-based; details: A549, 48 h
A549 [11] = assay: Antiproliferative activity against human A549 cells harboring katanin siRNA after 48 hrs by MTT assay; type: functional, cell-based; details: A549, 48 h
A549 [12] = assay: Cell cycle arrest in human A549 cells assessed as accumulation of cells at G2/M phase at 0.5 to 2 uM after 24 hrs by RNase A/propidium iodide staining-based flow cytometric analysis; type: functional
A549 [13] = assay: Cell cycle arrest in human A549 cells after 24 hrs by RNase A/propidium iodide staining-based flow cytometric analysis; type: functional
A549 [14] = assay: Cell cycle arrest in human A549 cells assessed as increase in cyclin B1 expression at 0.5 to 2 uM after 24 hrs by immunoblotting analysis; type: functional, cell-based
A549 [15] = assay: Cell cycle arrest in human A549 cells assessed as increase in p21 expression at 0.5 to 2 uM after 24 hrs by immunoblotting analysis; type: functional, cell-based
A549 [16] = assay: Cell cycle arrest in human A549 cells assessed as increase in histone 3 phosphorylation at 0.5 to 2 uM after 24 hrs by immunoblotting analysis; type: functional, cell-based
Tubulin (Sus scrofa) = Tubulin (Sus scrofa) (UniProt P02554+P02550); assay: (§1) Inhibition of pig brain tubulin polymerization measured every 1 min for 25 mins by spectrophotometric method
Tubulin (Sus scrofa), sequence (P02550 whole entry, looked up): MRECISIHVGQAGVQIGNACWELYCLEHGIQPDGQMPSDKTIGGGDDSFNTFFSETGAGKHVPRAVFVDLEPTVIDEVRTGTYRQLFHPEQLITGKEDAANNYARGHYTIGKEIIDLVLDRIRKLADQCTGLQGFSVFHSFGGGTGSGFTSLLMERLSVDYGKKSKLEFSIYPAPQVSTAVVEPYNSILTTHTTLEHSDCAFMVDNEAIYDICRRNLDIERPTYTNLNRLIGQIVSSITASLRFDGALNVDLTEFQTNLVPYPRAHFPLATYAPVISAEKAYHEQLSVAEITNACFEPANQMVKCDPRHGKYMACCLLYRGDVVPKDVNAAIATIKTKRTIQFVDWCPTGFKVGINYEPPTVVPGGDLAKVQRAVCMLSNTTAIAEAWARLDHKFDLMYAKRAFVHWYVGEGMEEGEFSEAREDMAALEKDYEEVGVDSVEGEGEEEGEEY
Tubulin (Sus scrofa), sequence (P02554 whole entry, looked up): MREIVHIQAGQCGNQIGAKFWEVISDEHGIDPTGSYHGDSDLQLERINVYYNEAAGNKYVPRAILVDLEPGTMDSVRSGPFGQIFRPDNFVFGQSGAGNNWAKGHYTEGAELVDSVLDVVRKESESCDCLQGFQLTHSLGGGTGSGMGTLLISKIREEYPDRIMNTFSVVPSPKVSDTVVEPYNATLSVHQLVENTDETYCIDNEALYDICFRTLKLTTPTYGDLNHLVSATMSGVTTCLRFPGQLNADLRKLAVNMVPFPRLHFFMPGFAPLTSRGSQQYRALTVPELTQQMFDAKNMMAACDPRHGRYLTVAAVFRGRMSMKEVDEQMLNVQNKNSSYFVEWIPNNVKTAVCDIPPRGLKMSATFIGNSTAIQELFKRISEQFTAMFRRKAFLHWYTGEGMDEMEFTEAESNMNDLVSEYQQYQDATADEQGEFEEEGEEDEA

Tubulin = Tubulin (Sus scrofa, UniProt P02554+P02550); assay: as §1
A549 [17] = assay: Induction of apoptosis in human A549 cells assessed as early apoptotic cells at 0.5 uM after 48 hrs by Annexin-V/propidium iodide staining based flow cytometric method (reference value: 0.51%); type: functional
A549 [18] = assay: Induction of apoptosis in human A549 cells assessed as late apoptotic cells at 0.5 uM after 48 hrs by Annexin-V/propidium iodide staining based flow cytometric method (reference value: 1.18%); type: functional
A549 [19] = assay: Induction of apoptosis in human A549 cells assessed as necrotic cells at 0.5 uM after 48 hrs by Annexin-V/propidium iodide staining based flow cytometric method (reference value: 6.26%); type: functional
A549 [20] = assay: Induction of apoptosis in human A549 cells assessed as viable cells at 1 uM after 48 hrs by Annexin-V/propidium iodide staining based flow cytometric method (reference value: 92.05%); type: functional; details: A549, 48 h, read-out: Activity
A549 [21] = assay: Induction of apoptosis in human A549 cells assessed as early apoptotic cells at 1 uM after 48 hrs by Annexin-V/propidium iodide staining based flow cytometric method (reference value: 0.51%); type: functional
A549 [22] = assay: Induction of apoptosis in human A549 cells assessed as late apoptotic cells at 1 uM after 48 hrs by Annexin-V/propidium iodide staining based flow cytometric method (reference value: 1.18%); type: functional
A549 [23] = assay: Induction of apoptosis in human A549 cells assessed as necrotic cells at 1 uM after 48 hrs by Annexin-V/propidium iodide staining based flow cytometric method (reference value: 6.26%); type: functional
A549 [24] = assay: Induction of apoptosis in human A549 cells assessed as viable cells at 2 uM after 48 hrs by Annexin-V/propidium iodide staining based flow cytometric method (reference value: 92.05%); type: functional; details: A549, 48 h, read-out: Activity
A549 [25] = assay: Induction of apoptosis in human A549 cells assessed as early apoptotic cells at 2 uM after 48 hrs by Annexin-V/propidium iodide staining based flow cytometric method (reference value: 0.51%); type: functional
A549 [26] = assay: Induction of apoptosis in human A549 cells assessed as late apoptotic cells at 2 uM after 48 hrs by Annexin-V/propidium iodide staining based flow cytometric method (reference value: 1.18%); type: functional
A549 [27] = assay: Induction of apoptosis in human A549 cells assessed as necrotic cells at 2 uM after 48 hrs by Annexin-V/propidium iodide staining based flow cytometric method (reference value: 6.26%); type: functional
A549 [28] = assay: Induction of apoptosis in human A549 cells after 48 hrs by Annexin-V/propidium iodide staining based flow cytometric method; type: functional, cell-based
A549 [29] = assay: Induction of apoptosis in human A549 cells assessed as PARP cleavage at 2 to 8 uM after 48 hrs by immunoblotting analysis; type: functional, cell-based
A549 [30] = assay: Induction of apoptosis in human A549 cells assessed as increase in Bad expression level at 2 to 8 uM after 48 hrs by immunoblotting analysis; type: functional, cell-based
A549 [31] = assay: Induction of apoptosis in human A549 cells assessed as increase in p53 expression level at 2 to 8 uM after 48 hrs by immunoblotting analysis; type: functional, cell-based
[32] = AUC (0 to 24 hrs) in ICR mouse at 50 mg/kg, ip after 0.08 to 24 hrs by HPLC-MS/MS analysis; type: ADME, organism-based; parameters: time < 24 hr, dose 50 mg/kg, route intraperitoneal; details: in vivo
[33] = AUC(0 to infinity) in ICR mouse at 50 mg/kg, ip after 0.08 to 24 hrs by HPLC-MS/MS analysis; type: ADME, organism-based; parameters: dose 50 mg/kg, time infinity, route intraperitoneal; details: in vivo
[34] = Cmax in ICR mouse at 50 mg/kg, ip after 0.08 to 24 hrs by HPLC-MS/MS analysis; type: ADME, organism-based; parameters: dose 50 mg/kg, route intraperitoneal; details: in vivo
[35] = Tmax in ICR mouse at 50 mg/kg, ip after 0.08 to 24 hrs by HPLC-MS/MS analysis; type: ADME, organism-based; details: in vivo
[36] = Half life in ICR mouse at 50 mg/kg, ip after 0.08 to 24 hrs by HPLC-MS/MS analysis; type: ADME, organism-based; details: in vivo
[37] = Apparent volume of distribution in ICR mouse at 50 mg/kg, ip after 0.08 to 24 hrs by HPLC-MS/MS analysis; type: ADME, organism-based; details: in vivo
[38] = Apparent oral clearance ICR mouse at 50 mg/kg, ip after 0.08 to 24 hrs by HPLC-MS/MS analysis; type: ADME, organism-based; details: in vivo
[39] = MRT in ICR mouse at 50 mg/kg, ip after 0.08 to 24 hrs by HPLC-MS/MS analysis; type: ADME, organism-based; details: in vivo
A2780 [40] = assay: Antitumour activity against human A2780 cells xenografted in Balb/c mouse assessed as reduction in tumour volume at 25 to 50 mg/kg, ip administered every other day by caliper method; type: functional, organism-based
[41] = Toxicity in Balb/c mouse xenografted with human A2780 cells assessed effect on body weight at 25 to 50 mg/kg, ip administered every other day; type: organism-based; details: in vivo
A2780 [42] = assay: Antitumour activity against human A2780 cells xenografted in Balb/c mouse assessed as reduction in tumour weight at 25 to 50 mg/kg, ip administered every other day; type: functional, organism-based

COc1ccc(-c2cc3c([nH]c(=O)n3-c3cc(OC)c(OC)c(OC)c3)c(C(N)=O)n2)cc1O
pIC50 (HUVEC [1]): < 5.00
viability at 0.5 µM (A549 [2]): 79.7%
inhibition at 0.4 µM (HUVEC [3]): 100%
inhibition (HUVEC [4]): Active
inhibition (A549 [5]): Dose-dependent effect
pIC50 (A2780 [6]): 6.68
pIC50 (HeLa): 6.60
pIC50 (HCT-116): 6.77
pIC50 (A549 [7]): 6.40
Activity (Tubulin (Homo sapiens)): Dose-dependent effect
pKd [8]: 4.90
inhibition [9]: inactive
pIC50 (A549 [10]): 6.47
pIC50 (A549 [11]): 5.83
inhibition (A549 [12]): Active
inhibition (A549 [13]): Dose-dependent effect
Activity (A549 [14]): Active
Activity (A549 [15]): Active
Activity (A549 [16]): Active
inhibition (Tubulin (Sus scrofa)): Dose-dependent effect
IC50 (Tubulin): 8400 nM
Activity (A549 [17]): 7.51%
Activity (A549 [18]): 5.43%
Activity (A549 [19]): 7.34%
viability at 1 µM (A549 [20]): 65.1%
Activity (A549 [21]): 15.85%
Activity (A549 [22]): 8.69%
Activity (A549 [23]): 10.33%
viability at 2 µM (A549 [24]): 42.2%
Activity (A549 [25]): 36.48%
Activity (A549 [26]): 14.08%
Activity (A549 [27]): 7.2%
Activity (A549 [28]): Dose-dependent effect
Activity (A549 [29]): Active
Activity (A549 [30]): Active
Activity (A549 [31]): Active
AUC(0-t) at 24 h [32]: 2630 ng·h/mL
AUC(0-inf) [33]: 2950 ng·h/mL
Cmax [34]: 580 ng/mL
Tmax [35]: 0.23 h
half-life [36]: 9.36 h
Vd/F [37]: 4625.07 mL
CL/F [38]: 5.73 mL/min
MRT [39]: 8.39 h
Activity (A2780 [40]): Active
Activity [41]: Non-Toxic
Activity (A2780 [42]): Active
